Patent publication US20230219986A1, “NOVEL AMINOPYRIMIDINE EGFR INHIBITOR” (QILU PHARMACEUTICAL CO., LTD., priority 2020, published 2023)
Where two headings read alike, the source gives them in different places.

Key:
[1] = biological target: Ba/F3 L858R/T790M/C797S EGFR triple mutant cell line (Homo sapiens, UniProt P00533, T790M/C797S/L858R, cells depend on it); assay: Cell proliferation inhibition experiment (CellTiter-Glo), Ba/F3 L858R/T790M/C797S; type: cell-based; conditions: 72 hours, Cell Titer-Glo, read-out: Ba/F3 (L858R/T790M/C797S) IC50
Procedure: (§1) 3) 30 nL of gradient diluted compound was transferred into the 384-well experimental plate using Echo 550 (Labcyte) at a DMSO final concentration of 0.1%, and the culture plate was incubated in a cell incubator for 72 hours (37° C., 5% CO2).
(§2) 4) 30 μL of Cell Titer-Glo reagent was added to each well and left for 30 minutes at room temperature and protected from light.
(§3) 5) Envision microplate reader (PerkinElmer) detected chemiluminescence signals.
(§4) 6) GraphPad Prism 8 software was used for data analysis to obtain the IC50 of the compounds of the present disclosure and the positive control.

[2] = biological target: Ba/F3 De119/T790M/C797S EGFR triple mutant cell line (Homo sapiens, UniProt P00533, T790M/C797S, cells depend on it, form not given); assay: Cell proliferation inhibition experiment (CellTiter-Glo), Ba/F3 De119/T790M/C797S; type: cell-based; conditions: Ba/F3 Del19/T790M/C797S EGFR triple mutant cells, 72 hours, Cell Titer-Glo; read-out: Ba/F3 (Del19/T790M/C797S) IC50
Procedure: as §1, §2, §3, §4

[3] = system: EGFR wild-type cell line A431; assay: Cell proliferation inhibition experiment (CellTiter-Glo), A431; type: cell-based; conditions: Homo sapiens, A431 cells, Cell Titer-Glo, read-out: A431 EGFR WT IC50
Procedure: A431 cells, purchased from ATCC.
1) A431 cells were inoculated in a 384-well culture plate at a density of 800 cells per well, 30 μL per well, placed in a cell incubator, and cultured for 24 hours (37° C., 5% CO2).
as §1, §2, §3, §4

[4] = biological target: T1, L858R/T790M/C797S triple mutant EGFR (Homo sapiens, UniProt P00533, C797S/L858R/T790M); assay: Enzymology experiment in vitro (HTRF/FRET kinase activity), L858R/T790M/C797S triple mutant EGFR; type: biochemical; conditions: HTRF KinEASE-TK, read-out: EGFR (L858R/T790M/C797S) IC50
T1 construct: purchased Signalchem
Procedure: (§5) 1. Experimental Materials
(§6) HTRF KinEASE-TK kit detection reagent, purchased from Cisbio
(§7) 1) 10 nL of gradient diluted compound was transferred into a 384-well experimental plate using Echo 550 (Labcyte).
(§8) 2) 5 μL of 2×EGFR enzyme solution was added to the 384-well experimental plate and incubated at room temperature for 10 minutes.
(§9) 3) 5 μL of 2× substrate solution containing polypeptide and ATP was added to the 384-well experimental plate and incubated at room temperature for 40 minutes.
(§10) 4) 10 μL of detection solution containing EDTA, XL665-labeled streptavidin and Eu^3+-labeled antibody was added thereto and incubated at room temperature for 1 hour.

[5] = biological target: T2, wild-type EGFR (Homo sapiens, UniProt P00533); assay: Enzymology experiment in vitro (HTRF/FRET kinase activity), wild-type EGFR; type: biochemical; conditions: HTRF KinEASE-TK, read-out: EGFR (WT) IC50
T2 construct: purchased Signalchem
Procedure: as §5, §6, §7, §8, §9, §10

Ba/F3 L858R/T790M/C797S EGFR triple mutant cell line, sequence (P00533 whole entry T790M/C797S/L858R): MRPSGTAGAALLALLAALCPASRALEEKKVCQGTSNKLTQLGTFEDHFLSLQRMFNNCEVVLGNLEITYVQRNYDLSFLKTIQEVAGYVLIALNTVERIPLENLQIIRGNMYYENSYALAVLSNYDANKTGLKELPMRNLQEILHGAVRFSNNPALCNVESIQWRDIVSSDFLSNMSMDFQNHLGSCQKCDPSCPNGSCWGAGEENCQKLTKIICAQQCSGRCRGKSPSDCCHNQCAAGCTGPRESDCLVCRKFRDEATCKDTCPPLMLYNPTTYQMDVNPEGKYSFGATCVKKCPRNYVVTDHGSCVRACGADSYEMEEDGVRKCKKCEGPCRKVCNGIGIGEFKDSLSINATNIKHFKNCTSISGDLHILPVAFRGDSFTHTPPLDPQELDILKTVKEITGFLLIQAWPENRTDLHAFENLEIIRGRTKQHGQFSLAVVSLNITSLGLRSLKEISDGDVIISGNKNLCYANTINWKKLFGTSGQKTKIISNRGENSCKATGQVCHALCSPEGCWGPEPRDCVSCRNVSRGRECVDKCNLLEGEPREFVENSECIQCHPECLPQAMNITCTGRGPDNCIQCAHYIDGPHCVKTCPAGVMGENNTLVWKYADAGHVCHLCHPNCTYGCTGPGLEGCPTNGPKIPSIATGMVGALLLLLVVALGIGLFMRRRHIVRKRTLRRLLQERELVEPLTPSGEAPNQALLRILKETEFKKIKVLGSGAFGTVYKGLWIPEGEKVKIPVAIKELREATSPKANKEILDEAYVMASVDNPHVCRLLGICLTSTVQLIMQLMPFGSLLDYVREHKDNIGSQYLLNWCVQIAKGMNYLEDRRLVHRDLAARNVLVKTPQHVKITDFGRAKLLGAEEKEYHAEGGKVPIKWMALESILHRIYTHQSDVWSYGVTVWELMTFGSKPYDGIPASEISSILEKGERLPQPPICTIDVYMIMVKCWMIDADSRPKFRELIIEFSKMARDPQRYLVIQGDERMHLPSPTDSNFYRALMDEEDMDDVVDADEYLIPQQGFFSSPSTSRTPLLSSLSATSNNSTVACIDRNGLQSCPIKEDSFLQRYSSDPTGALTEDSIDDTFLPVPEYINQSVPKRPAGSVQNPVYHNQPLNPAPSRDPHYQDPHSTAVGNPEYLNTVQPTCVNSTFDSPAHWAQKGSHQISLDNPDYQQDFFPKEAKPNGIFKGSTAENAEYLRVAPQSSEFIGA
T2 sequence (P00533 25-1210): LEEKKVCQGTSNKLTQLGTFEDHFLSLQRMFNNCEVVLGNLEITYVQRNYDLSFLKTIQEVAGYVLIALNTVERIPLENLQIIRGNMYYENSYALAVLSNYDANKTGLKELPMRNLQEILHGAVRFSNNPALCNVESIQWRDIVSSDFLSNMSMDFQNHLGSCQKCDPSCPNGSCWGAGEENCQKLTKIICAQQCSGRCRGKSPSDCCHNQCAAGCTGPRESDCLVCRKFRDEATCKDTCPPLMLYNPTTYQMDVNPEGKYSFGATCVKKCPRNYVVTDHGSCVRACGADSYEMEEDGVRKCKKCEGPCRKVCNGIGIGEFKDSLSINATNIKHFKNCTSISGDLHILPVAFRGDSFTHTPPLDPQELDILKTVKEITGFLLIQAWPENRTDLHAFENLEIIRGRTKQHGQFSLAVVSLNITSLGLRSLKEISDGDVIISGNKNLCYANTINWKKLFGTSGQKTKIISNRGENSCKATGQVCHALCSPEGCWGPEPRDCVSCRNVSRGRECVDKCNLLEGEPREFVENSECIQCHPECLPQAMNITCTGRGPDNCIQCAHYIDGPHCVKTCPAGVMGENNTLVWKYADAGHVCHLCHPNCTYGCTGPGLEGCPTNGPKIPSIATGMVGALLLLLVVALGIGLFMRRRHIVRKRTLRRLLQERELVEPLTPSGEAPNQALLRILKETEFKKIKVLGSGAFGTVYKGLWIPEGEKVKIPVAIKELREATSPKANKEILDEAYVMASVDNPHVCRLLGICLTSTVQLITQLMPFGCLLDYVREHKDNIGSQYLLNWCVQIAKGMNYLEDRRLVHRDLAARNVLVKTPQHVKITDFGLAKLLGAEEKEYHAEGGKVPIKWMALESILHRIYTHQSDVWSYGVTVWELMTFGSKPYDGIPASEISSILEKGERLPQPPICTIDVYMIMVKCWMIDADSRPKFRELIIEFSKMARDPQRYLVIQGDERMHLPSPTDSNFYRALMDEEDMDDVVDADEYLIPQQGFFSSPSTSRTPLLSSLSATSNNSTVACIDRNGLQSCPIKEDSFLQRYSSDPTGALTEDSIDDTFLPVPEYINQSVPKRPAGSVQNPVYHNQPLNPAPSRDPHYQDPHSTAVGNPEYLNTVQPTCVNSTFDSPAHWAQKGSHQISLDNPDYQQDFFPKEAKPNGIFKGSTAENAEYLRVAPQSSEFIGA
Ba/F3 De119/T790M/C797S EGFR triple mutant cell line, sequence (P00533 with tags, fused parts or gaps DEL746-750/T790M/C797S, form open): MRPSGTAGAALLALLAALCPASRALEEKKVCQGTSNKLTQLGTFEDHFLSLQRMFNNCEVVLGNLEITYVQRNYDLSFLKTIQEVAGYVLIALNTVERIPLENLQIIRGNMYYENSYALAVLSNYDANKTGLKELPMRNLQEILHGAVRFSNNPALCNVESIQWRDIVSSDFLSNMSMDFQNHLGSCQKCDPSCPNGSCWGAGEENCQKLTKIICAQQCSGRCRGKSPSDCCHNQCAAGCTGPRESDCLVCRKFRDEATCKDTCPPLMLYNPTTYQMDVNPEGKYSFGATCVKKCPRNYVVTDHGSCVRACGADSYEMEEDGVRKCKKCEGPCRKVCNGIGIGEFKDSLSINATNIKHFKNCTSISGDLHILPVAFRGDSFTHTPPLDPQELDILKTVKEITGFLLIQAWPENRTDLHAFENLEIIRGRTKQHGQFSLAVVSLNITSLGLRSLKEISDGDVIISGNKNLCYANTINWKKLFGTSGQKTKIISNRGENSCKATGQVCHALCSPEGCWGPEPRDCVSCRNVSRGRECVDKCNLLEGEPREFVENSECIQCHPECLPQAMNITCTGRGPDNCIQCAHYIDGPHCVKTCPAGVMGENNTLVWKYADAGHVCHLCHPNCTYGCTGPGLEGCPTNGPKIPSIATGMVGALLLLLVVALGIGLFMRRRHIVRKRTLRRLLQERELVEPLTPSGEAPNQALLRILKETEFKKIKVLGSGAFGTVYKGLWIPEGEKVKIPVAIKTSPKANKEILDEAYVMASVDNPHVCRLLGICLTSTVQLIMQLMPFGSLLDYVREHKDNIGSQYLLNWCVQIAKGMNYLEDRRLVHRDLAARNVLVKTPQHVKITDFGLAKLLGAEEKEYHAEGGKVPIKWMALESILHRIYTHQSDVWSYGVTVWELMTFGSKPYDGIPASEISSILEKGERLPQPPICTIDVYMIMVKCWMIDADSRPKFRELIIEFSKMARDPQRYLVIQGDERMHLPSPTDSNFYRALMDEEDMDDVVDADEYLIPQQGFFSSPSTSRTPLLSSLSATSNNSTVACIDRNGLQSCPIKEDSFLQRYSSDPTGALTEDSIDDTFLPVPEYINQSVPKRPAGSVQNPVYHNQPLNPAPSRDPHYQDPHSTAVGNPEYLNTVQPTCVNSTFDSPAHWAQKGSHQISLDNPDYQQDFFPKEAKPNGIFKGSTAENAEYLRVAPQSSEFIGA
T1 sequence (P00533 25-1210 T790M/C797S/L858R): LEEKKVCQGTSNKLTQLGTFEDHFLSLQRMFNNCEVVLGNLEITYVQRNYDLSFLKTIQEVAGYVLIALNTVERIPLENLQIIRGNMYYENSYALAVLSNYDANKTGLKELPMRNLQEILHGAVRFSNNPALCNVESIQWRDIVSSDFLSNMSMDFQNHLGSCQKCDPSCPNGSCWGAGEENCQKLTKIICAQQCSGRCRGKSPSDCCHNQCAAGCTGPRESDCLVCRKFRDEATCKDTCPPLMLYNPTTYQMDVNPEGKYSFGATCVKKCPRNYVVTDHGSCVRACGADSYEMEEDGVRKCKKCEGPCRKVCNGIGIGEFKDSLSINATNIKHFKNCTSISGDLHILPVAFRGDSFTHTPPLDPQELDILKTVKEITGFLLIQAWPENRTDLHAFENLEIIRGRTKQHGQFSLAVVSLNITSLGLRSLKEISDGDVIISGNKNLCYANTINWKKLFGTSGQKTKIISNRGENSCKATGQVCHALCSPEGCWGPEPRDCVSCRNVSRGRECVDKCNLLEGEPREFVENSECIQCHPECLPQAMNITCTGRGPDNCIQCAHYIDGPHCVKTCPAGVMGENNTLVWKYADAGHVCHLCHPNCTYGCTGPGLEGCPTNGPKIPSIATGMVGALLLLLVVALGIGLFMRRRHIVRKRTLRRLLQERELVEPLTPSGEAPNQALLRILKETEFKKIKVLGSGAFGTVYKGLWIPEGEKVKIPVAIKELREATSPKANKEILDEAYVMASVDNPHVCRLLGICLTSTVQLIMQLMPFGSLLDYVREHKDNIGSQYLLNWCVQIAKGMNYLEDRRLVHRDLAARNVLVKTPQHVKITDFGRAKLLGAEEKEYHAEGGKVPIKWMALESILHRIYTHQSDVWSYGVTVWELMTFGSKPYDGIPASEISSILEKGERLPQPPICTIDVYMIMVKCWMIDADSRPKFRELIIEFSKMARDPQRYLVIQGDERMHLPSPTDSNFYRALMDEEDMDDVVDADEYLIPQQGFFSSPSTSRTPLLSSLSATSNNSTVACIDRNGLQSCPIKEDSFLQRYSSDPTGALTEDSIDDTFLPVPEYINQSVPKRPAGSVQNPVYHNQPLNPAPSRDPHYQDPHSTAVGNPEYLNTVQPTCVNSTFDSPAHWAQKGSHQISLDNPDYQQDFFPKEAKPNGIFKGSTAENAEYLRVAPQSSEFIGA

SMILES | GI50 [1] | GI50 [2] | IC50 ([3]; A-431, 72 hours) | IC50 ([3]; A-431, 72 h) | IC50 [4] | IC50 [5]
COc1cc(N2CCC(N3CCN(C)CC3)CC2)ccc1Nc1ncc(Cl)c(Nc2ccccc2P(C)(C)=O)n1 [Brigatinib, reference compound] | 320 nM | 103 nM | 771 nM | – | – | –
COc1c(Nc2ncc(Br)c(Nc3ccc4nccnc4c3P(C)(C)=O)n2)cc(-c2cnn(C)c2)c(N2CCOCC2)c1C [Compound 68, (6-((5-bromo-2-((2-methoxy-3-methyl-5-(1-methyl-1H-pyrazol-4-yl)-4-morpholinylphenyl)amino)pyrimidin-4-yl)amino)quinoxalin-5-yl)dimethylphosphine oxide] | 372 nM | 114 nM | – | 1390 nM | – | –
CN1CCN(c2ncc(Nc3ncc(Br)c(Nc4ccc5nccnc5c4P(C)(C)=O)n3)cc2-c2cnn(C)c2)CC1 [Compound 70, (6-((5-bromo-2-((5-(1-methyl-1H-pyrazol-4-yl)-6-(4-methylpiperazin-1-yl)pyridin-3-yl)amino)pyrimidin-4-yl)amino)quinoxalin-5-yl)dimethylphosphine oxide] | 348 nM | 117 nM | – | 157 nM | – | –
COc1cc(S(C)(=O)=O)c(-c2cnn(C)c2)cc1Nc1ncc(Br)c(Nc2ccc3nccnc3c2P(C)(C)=O)n1 [compound 44] | – | 93.5 nM | – | ≥ 5000 nM | 22 nM | 1560 nM
COc1nc(N(C)CCN(C)C)c(-c2cnn(C)c2)cc1Nc1ncc(Br)c(Nc2ccc3nccnc3c2P(C)(C)=O)n1 [compound 45] | – | 7.65 nM | – | 102 nM | – | –
Cn1cc(-c2cc(Nc3ncc(Br)c(Nc4ccc5nccnc5c4P(C)(C)=O)n3)cc(F)c2N2CCOCC2)cn1 [compound 46] | 11.7 nM | 6.71 nM | – | 67.2 nM | – | –
CN1CCOc2c(Nc3ncc(Br)c(Nc4ccc5nccnc5c4P(C)(C)=O)n3)cc(-c3cnn(C)c3)cc21 [compound 47] | – | 4.31 nM | – | 126 nM | 0.37 nM | 20.5 nM
Cn1cc(-c2cc(Nc3ncc(Br)c(Nc4ccc5nccnc5c4P(C)(C)=O)n3)ccc2N2CCOCC2)cn1 [compound 48] | 6.03 nM | 3.02 nM | – | 51.1 nM | – | –
CCn1cc(-c2cc(Nc3ncc(Br)c(Nc4ccc5nccnc5c4P(C)(C)=O)n3)c(OC)cc2N2CCOCC2)cn1 [compound 49] | – | 4.88 nM | – | 234 nM | 0.12 nM | 21.5 nM
COc1ccc(-n2ccnc2)cc1Nc1ncc(Br)c(Nc2ccc3nccnc3c2P(C)(C)=O)n1 [compound 50] | – | 34.1 nM | – | 508 nM | – | –
CNC(=O)c1ccccc1Nc1nc(Nc2cc(-c3cnn(C)c3)c(N3CCOCC3)cc2OC)ncc1Br [compound 52] | – | 26.7 nM | – | 158 nM | – | –
COc1cc(N2CCOCC2)c(-c2cnn(C)c2)cc1Nc1ncc(Br)c(Nc2ccccc2S(=O)(=O)C(C)C)n1 [compound 54] | – | 103 nM | – | 638 nM | – | –
COc1cc(P(C)(C)=O)c(-c2cnn(C)c2)cc1Nc1ncc(Br)c(Nc2ccc3nccnc3c2P(C)(C)=O)n1 [compound 55] | – | 1230 nM | – | ≥ 5000 nM | – | –
COc1cc(N2CCOCC2)c(C#N)cc1Nc1ncc(Br)c(Nc2ccc3nccnc3c2P(C)(C)=O)n1 [compound 59] | – | 26.2 nM | – | 345 nM | – | –
COc1cc(N2CCOCC2)c(-c2cncnc2)cc1Nc1ncc(C)c(Nc2ccc3nccnc3c2P(C)(C)=O)n1 [compound 60] | – | 89.3 nM | – | 658 nM | – | –
COc1cc(N2CCOCC2)c(-n2cccn2)cc1Nc1ncc(Br)c(Nc2ccc3nccnc3c2P(C)(C)=O)n1 [compound 61] | 794 nM | 312 nM | – | 6580 nM | – | –
COc1cc(N2CCOCC2)c(-c2cnn(C)c2)c(F)c1Nc1ncc(Br)c(Nc2ccc3nccnc3c2P(C)(C)=O)n1 [compound 62] | 195 nM | 73.6 nM | – | 3380 nM | – | –
COc1nc(N2CCOCC2)c(-c2cnn(C)c2)cc1Nc1ncc(C)c(Nc2ccc3nccnc3c2P(C)(C)=O)n1 [compound 63] | 24.9 nM | 14.3 nM | – | 331 nM | – | –
